Assay results from patent US20180057507A1, “INHIBITORS OF DUAL LEUCINE ZIPPER (DLK) KINASE FOR THE TREATMENT OF DISEASE” (Board of Regents, The University of Texas System, priority 2016, published 2018).

What follows are compounds tested against T1, human DLK (Homo sapiens, UniProt Q12852) (assay: DLK Kd Determinations (KINOMEscan KdELECT, DiscoveRx)). Conditions: fusion protein of full length human DLK (amino acids 1-859) and NFkB DNA binding domain; qPCR readout; duplicate.
T1 sequence (Q12852 1-859): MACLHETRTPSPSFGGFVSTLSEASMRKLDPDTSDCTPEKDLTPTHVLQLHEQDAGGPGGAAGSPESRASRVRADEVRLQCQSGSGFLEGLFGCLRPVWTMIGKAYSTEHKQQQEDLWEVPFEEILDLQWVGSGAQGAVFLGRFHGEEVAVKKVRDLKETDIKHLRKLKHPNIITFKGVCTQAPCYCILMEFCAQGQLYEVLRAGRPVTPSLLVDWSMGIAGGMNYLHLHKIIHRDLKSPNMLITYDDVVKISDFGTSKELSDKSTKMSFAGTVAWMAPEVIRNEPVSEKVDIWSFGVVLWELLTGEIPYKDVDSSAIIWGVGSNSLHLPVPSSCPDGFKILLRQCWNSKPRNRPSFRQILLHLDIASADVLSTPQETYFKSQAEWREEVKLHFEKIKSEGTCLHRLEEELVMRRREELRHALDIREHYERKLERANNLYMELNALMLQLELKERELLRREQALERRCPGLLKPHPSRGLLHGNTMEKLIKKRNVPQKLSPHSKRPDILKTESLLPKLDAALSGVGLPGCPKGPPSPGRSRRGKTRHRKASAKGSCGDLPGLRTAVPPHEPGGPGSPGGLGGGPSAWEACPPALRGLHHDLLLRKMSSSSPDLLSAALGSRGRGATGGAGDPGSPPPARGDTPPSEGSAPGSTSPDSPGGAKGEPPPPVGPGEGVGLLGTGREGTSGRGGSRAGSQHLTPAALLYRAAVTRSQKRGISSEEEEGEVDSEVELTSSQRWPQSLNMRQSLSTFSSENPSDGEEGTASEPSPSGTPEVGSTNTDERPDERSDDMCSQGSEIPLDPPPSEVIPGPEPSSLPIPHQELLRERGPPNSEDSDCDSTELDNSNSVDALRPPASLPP
Design: full length of human DLK (amino acids 1-859); host or cells: transiently transfected HEK293 cells; unpurified extract
Procedure: The DLK dissociation constants (Kd) have been determined in the KINOMEscan KdELECT Service at DiscoveRx.
A fusion protein of full length of human DLK (amino acids 1-859) and the DNA binding domain of NFkB was expressed in transiently transfected HEK293 cells. From these HEK 293 cells, extracts were prepared in M-PER extraction buffer (Pierce) in the presence of Protease Inhibitor Cocktail Complete (Roche) and Phosphatase Inhibitor Cocktail Set II (Merck) per manufacturers' instructions. The DLK fusion protein was labeled with a chimeric double-stranded DNA tag containing the NFkB binding site (5′-GGGAATTCCC-3′) fused to an amplicon for qPCR readout, which was added directly to the expression extract (the final concentration of DNA-tag in the binding reaction is 0.1 nM).
Streptavidin-coated magnetic beads (Dynal M280) were treated with a biotinylated small molecule ligand for 30 minutes at room temperature to generate affinity resins the binding assays. The liganded beads were blocked with excess biotin and washed with blocking buffer (SeaBlock (Pierce), 1% BSA, 0.05% Tween 20, 1 mM DTT) to remove unbound ligand and to reduce nonspecific binding.
Extracts were used directly in binding assays without any enzyme purification steps at a ≧10,000-fold overall stock dilution (final DNA-tagged enzyme concentration <0.1 nM). Extracts were loaded with DNA-tag and diluted into the binding reaction in a two step process. First extracts were diluted 1:100 in 1× binding buffer (PBS/0.05% Tween 20/10 mM DTT/0.1% BSA/2 μg/ml sonicated salmon sperm DNA) containing 10 nM DNA-tag. This dilution was allowed to equilibrate at room temperature for 15 minutes and then subsequently diluted 1:100 in 1× binding buffer. Test compounds were prepared as 111× stocks in 100% DMSO. Kds were determined using an 11-point 3-fold compound dilution series with three DMSO control points. All compounds for Kd measurements are distributed by acoustic transfer (non-contact dispensing) in 100% DMSO. The compounds were then diluted directly into the assays such that the final concentration of DMSO was 0.9%. All reactions performed in polypropylene 384-well plates. Each was a final volume of 0.02 mL. Assays were incubated with shaking for 1 hour at room temperature. Then the beads were pelleted and washed with wash buffer (1×PBS, 0.05% Tween 20) to remove displaced kinase and test compound. The washed based were re-suspended in elution buffer (1×PBS, 0.05% Tween 20, 0.5 μM non-biotinylated affinity ligand) and incubated at room temperature with shaking for 30 minutes. The kinase concentration in the eluates was measured by qPCR. qPCR reactions were assembled by adding 2.5 μL of kinase eluate to 7.5 μL of qPCR master mix containing 0.15 μM amplicon primers and 0.15 μM amplicon probe. The qPCR protocol consisted of a 10 minute hot start at 95° C., followed by 35 cycles of 95° C. for 15 seconds, 60° C. for 1 minute.
Test compounds were prepared as 111× stocks in 100% DMSO. Kds were determined using an 11-point 3-fold compound dilution series with three DMSO control points. All compounds for Kd measurements are distributed by acoustic transfer (non-contact dispensing) in 100% DMSO. The compounds were then diluted directly into the assays such that the final concentration of DMSO was 0.9%. The Kds were determined using a compound top concentration of 30,000 nM. Kd measurements were performed in duplicate.
Binding constants (Kds) were calculated with a standard dose-response curve using the Hill equation: […]
The Hill Slope was set to −1. Curves were fitted using a non-linear least square fit with the Levenberg-Marquardt algorithm (Levenberg, K., A method for the solution of certain non-linear problems in least squares, Q. Appl. Math. 2, 164-168 (1944)). See also Fabian, M. A. et al. A small molecule-kinase interaction map for clinical kinase inhibitors. Nat. Biotechnol. […]

Row | SMILES | Kd [nM]
1 | CC(C)c1nc(-c2cnc(N)c(C(F)(F)F)c2)cn1C1CCN(C2COC2)C1 (stereo not shown) [Example 36, 5-(2-isopropyl-1-(1-(oxetan-3-yl)pyrrolidin-3-yl)-1H-imidazol-4-yl)-3-(trifluoromethyl)pyridin-2-amine] | 350
2 | Nc1ncc(-c2cn([C@H]3[C@@H]4CN(C5COC5)C[C@@H]43)c(C3CCC3)n2)cc1OC(F)(F)F [Example 56, 5-(2-cyclobutyl-1-((1R,5S,6s)-3-(oxetan-3-yl)-3-azabicyclo[3.1.0]hexan-6-yl)-1H-imidazol-4-yl)-3-(trifluoromethoxy)pyridin-2-amine] | 280
3 | CC(C)c1nc(-c2cnc(N)c(C(F)(F)F)c2)cn1C [Example 21, 5-(2-isopropyl-1-methyl-1H-imidazol-4-yl)-3-(trifluoromethyl)pyridin-2-amine] | 640
4 | CC(=O)N1C[C@@H]2[C@H](C1)[C@H]2n1cc(-c2cnc(N)c(C(F)(F)F)c2)nc1C(C)C [Example 14, 1-(6-(4-(6-amino-5-(trifluoromethyl)pyridin-3-yl)-2-isopropyl-1H-imidazol-1-yl)-3-azabicyclo[3.1.0]hexan-3-yl)ethan-1-one] | 170
5 | CC(C)c1nc(-c2cnc(N)c(C(F)(F)F)c2)cn1[C@H]1[C@@H]2CN(CC(F)(F)F)C[C@@H]21 [Example 18, 5-(2-isopropyl-1-((1R,5S,6s)-3-(2,2,2-trifluoroethyl)-3-azabicyclo[3.1.0]hexan-6-yl)-1H-imidazol-4-yl)-3-(trifluoromethyl)pyridin-2-amine] | 720
6 | CC(C)c1nc(-c2cnc(N)c(C(F)(F)F)c2)cn1C1CC(F)(F)C1 [Example 26, 5-(1-(3,3-difluorocyclobutyl)-2-isopropyl-1H-imidazol-4-yl)-3-(trifluoromethyl)pyridin-2-amine] | 400
7 | Nc1ncc(-c2cn3c(n2)COCC3)cc1C(F)(F)F [Example 10, 5-(5,6-dihydro-8H-imidazo[2,1-c][1,4]oxazin-2-yl)-3-(trifluoromethyl)pyridin-2-amine] | 840
8 | CC(C)c1nc(-c2cnc(N)c(C(F)(F)F)c2)cn1CCC1CCOCC1 [Example 35, 5-(2-isopropyl-1-(2-(tetrahydro-2H-pyran-4-yl)ethyl)-1H-imidazol-4-yl)-3-(trifluoromethyl)pyridin-2-amine] | 160

Next, values leading:

Row | Kd [nM] | SMILES
9 | 92 | Nc1ncc(-c2cn([C@H]3[C@@H]4CN(CC(F)F)C[C@@H]43)c(C3CC3)n2)cc1OC(F)F [Example 103, 5-(2-cyclopropyl-1-((1R,5S,6s)-3-(2,2-difluoroethyl)-3-azabicyclo[3.1.0]hexan-6-yl)-1H-imidazol-4-yl)-3-(difluoromethoxy)pyridin-2-amine]
10 | 97 | CC(=O)N1C[C@@H]2[C@H](C1)[C@H]2n1cc(-c2cnc(N)c(C(F)(F)F)c2)nc1CC(F)(F)F [Example 82, 1-((1R,5S,6s)-6-(4-(6-amino-5-(trifluoromethyl)pyridin-3-yl)-2-(2,2,2-trifluoroethyl)-1H-imidazol-1-yl)-3-azabicyclo[3.1.0]hexan-3-yl)ethan-1-one]
11 | 53 | Nc1ncc(-c2cn([C@H]3[C@@H]4CNC[C@@H]43)c(C3CC3)n2)cc1OC(F)F [Example 96, 5-(1-((1R,5S,6s)-3-azabicyclo[3.1.0]hexan-6-yl)-2-cyclopropyl-1H-imidazol-4-yl)-3-(difluoromethoxy)pyridin-2-amine]
12 | 180 | Nc1ncc(-c2cn([C@H]3[C@@H]4CN(CC(F)(F)F)C[C@@H]43)c(CC3CC3)n2)cc1C(F)(F)F [Example 79, 5-(2-(cyclopropylmethyl)-1-((1R,5S,6s)-3-(2,2,2-trifluoroethyl)-3-azabicyclo[3.1.0]hexan-6-yl)-1H-imidazol-4-yl)-3-(trifluoromethyl)pyridin-2-amine]
13 | 280 | CC(C)c1nc(-c2cnc(N)c(OC(F)(F)F)c2)cn1[C@H]1[C@@H]2CN(CC(F)(F)F)C[C@@H]21 [Example 110, 5-(2-isopropyl-1-((1R,5S,6s)-3-(2,2,2-trifluoroethyl)-3-azabicyclo[3.1.0]hexan-6-yl)-1H-imidazol-4-yl)-3-(trifluoromethoxy)pyridin-2-amine]
14 | 120 | Nc1ncc(-c2cn([C@H]3[C@@H]4CN(CC(F)F)C[C@@H]43)c(CC(F)(F)F)n2)cc1C(F)(F)F [Example 122, 5-(1-((1R,5S,6s)-3-(2,2-difluoroethyl)-3-azabicyclo[3.1.0]hexan-6-yl)-2-(2,2,2-trifluoroethyl)-1H-imidazol-4-yl)-3-(trifluoromethyl)pyridin-2-amine]
15 | 55 | Nc1ncc(-c2cn([C@H]3[C@@H]4CN(CCF)C[C@@H]43)c(C3CC3)n2)cc1OC(F)F [Example 106, 5-(2-cyclopropyl-1-((1R,5S,6s)-3-(2-fluoroethyl)-3-azabicyclo[3.1.0]hexan-6-yl)-1H-imidazol-4-yl)-3-(difluoromethoxy)pyridin-2-amine]
16 | 62 | CC(=O)N1C[C@@H]2[C@H](C1)[C@H]2n1cc(-c2cnc(N)c(OC(F)F)c2)nc1C1CC1 [Example 118, 1-((1R,5S,6s)-6-(4-(6-amino-5-(difluoromethoxy)pyridin-3-yl)-2-cyclopropyl-1H-imidazol-1-yl)-3-azabicyclo[3.1.0]hexan-3-yl)ethan-1-one]
17 | 87 | Nc1ncc(-c2cn([C@H]3[C@@H]4CNC[C@@H]43)c(C3CC3)n2)cc1C(F)(F)F [Example 71, 5-(1-((1R,5S,6s)-3-azabicyclo[3.1.0]hexan-6-yl)-2-cyclopropyl-1H-imidazol-4-yl)-3-(trifluoromethyl)pyridin-2-amine]
18 | 510 | Nc1ncc(-c2cn([C@H]3[C@@H]4CN(CC(F)(F)F)C[C@@H]43)c(C3CC3)n2)cc1OC(F)(F)F [Example 70, 5-(2-cyclopropyl-1-((1R,5S,6s)-3-(2,2,2-trifluoroethyl)-3-azabicyclo[3.1.0]hexan-6-yl)-1H-imidazol-4-yl)-3-(trifluoromethoxy)pyridin-2-amine]
19 | 66 | CC(=O)N1C[C@@H]2[C@H](C1)[C@H]2n1cc(-c2cnc(N)c(C(F)(F)F)c2)nc1CC1CC1 [Example 114, 1-((1R,5S,6s)-6-(4-(6-amino-5-(trifluoromethyl)pyridin-3-yl)-2-(cyclopropylmethyl)-1H-imidazol-1-yl)-3-azabicyclo[3.1.0]hexan-3-yl)ethan-1-one]
